Laboratory results published in patent US11376307B2, “Compositions and methods of treating cancer with glycomimetic peptides” (SUSAVION BIOSCIENCES, INC., priority 2018, dated 2022).
Positions of bridges follow the written chain, without caps; N, C: chain ends. Chains are numbered I, II in the order given.

Columns and labels:
[1] = system: human monocyte-derived DCs co-cultured with CD3+ T cells; test: Allogenic mixed leukocyte reaction, IFN-γ release; format: cell-based
Method: FIGS. 5A-5B. Mixed leukocyte reaction. An allogenic mixture of 5×10^3 human monocyte-derived immature dendritic cells and 1×10^5 negatively selected CD3^+ T cells were incubated with various concentrations of sv6D. (FIG. 5A) Effect of concentration of sv6D in the medium on release of IFN-γ after 5 days of culture. […] (FIG. 5B) The time course of the appearance of IFN-γ in the medium of cultures incubated with 10 nM sv6D in (FIG. 5A) as compared with control incubations with PBS.
Binding of a peptide to CLEC10A expressed by DCs is expected to stimulate maturation and potential activation of T cells. This hypothesis was tested by an experiment in which human monocyte-derived DCs were co-cultured with T cells. Expression of CLEC10A (CD301) by the DCs was established by flow cytometry. sv6D was added to the medium at various concentrations, and IFN-γ production by T cells was assayed. […] Significant release of IFN-γ occurred after 3 days of incubation (FIG. 5B), a time required for DC maturation.

[2] = system: ID8 ovarian cancer cell line; test: Murine model of ovarian cancer, sv6D and anti-PD-1; format: in vivo, C57BL/6 mice
Method: FIGS. 9A-9B. Combination study of sv6D and anti-PD-1. (FIG. 9A) The design of the experiment and extension of survival of C57BL/6 female mice implanted with ovarian cancer cell line ID8 and treatments with anti-PD-1 and sv6D. Anti-PD-1 (rat anti-mouse, clone 29F.1A12) was administered intraperitoneally every other day, 200 μg protein per dose, between day 41 and 49 (white bars). sv6D was administered subcutaneously every other day at 0.1 nmol/g, starting on day 36, 51 or 87 (grey bars). […] (FIG. 9B) Kaplan-Meier survival curves of mice treated with anti-PD-1 and/or sv6D. […] For group 3, the Mantel-Cox log-rank test p=0.003 indicates the significance between treatment with the combination and antibody alone. Anti-PD-1, square; sv6D, dark triangle; anti-PD-1 followed by sv6D (Group 3 in FIG. 9A), light triangle; PBS, circle.
We tested whether sv6D would extend effectiveness of anti-PD-1. Five doses of anti-PD-1 (200 μg in PBS) were injected intraperitoneally on alternate days between days 41 and 49. sv6D was injected subcutaneously immediately after the treatment with anti-PD-1 and continued on alternate days to the end of the study (FIG. 9A, Group 3).

[3] = system: ID8 ovarian cancer cell line; test: Murine model of ovarian cancer, sv6D and paclitaxel
Method: Combination study of sv6D and paclitaxel. (FIG. 8A) Female C57BL/6 mice were implanted with ID8 ovarian cancer cell line. […] Body weights of mice are shown as measured on day 58, after two weeks of alternate-day subcutaneous treatment with sv6D (0.1 nmol/g) or 3 intraperitoneal doses (days 45, 47 and 49) of 18 μg/g paclitaxel in cremophor. […] (FIG. 8B) Alternate-day injections of sv6D were initiated on day 50 with peptide alone or on day 100 to mice that were previously treated with paclitaxel between day 45 and 49. […] (FIG. 8C) Kaplan-Meier survival curves for mice treated with paclitaxel, sv6D or a combination of the two in which alternate-day subcutaneous injections of sv6D was started 50 days after paclitaxel treatment.
Cells of an ovarian epithelial cancer line, ID8 [110], were implanted into the peritoneal cavity of female C57BL/6 mice at a dose of 6×10^6 cells. All animals were weighed at least weekly throughout these studies. Accumulation of ascites was monitored by increase in body weight, and animals were euthanized when end-stage behavior was expressed. […] Kaplan-Meier survival curves were analyzed by the Mantel-Cox log-rank test.
A murine ovarian cancer cell line (ID8) was implanted into the peritoneal cavity of C57BL/6 female mice on day 0. […] Progression of the cancer was monitored by body weight of animals as an indication of ascites accumulation.

peritoneal immune cells = test: Expansion of peritoneal cells after subcutaneous injection, flow cytometry; format: in vivo, Balb/c mice; conditions: 24 h after a single s.c. injection, 1 nmol/g
Method: Flow Cytometry Healthy C57BL/6 male mice, 10 weeks old, were injected subcutaneously with peptides on alternate days. Peritoneal cells were isolated from mice 24 h after dosing by injecting ice cold PBS (containing 3% FBS) into the peritoneal cavity, gently massaging the abdomen, and then collecting the fluid, which was transferred into K2EDTA-treated tubes for evaluation of specific biomarkers. Cells from three mice in each group were pooled, counted and divided among FACS tubes (1×10^6 cells per tube). […]
Cells were incubated with the antibodies for 30 min at 4° C. in the dark. Following staining, the cells were washed two times with PBS/3% FBS and immediately analyzed with a MACSQuant flow cytometer (Miltenyi Biotech, Inc., San Diego, Calif.). […]
To examine whether increases occurred in mature immune cells, peritoneal cells from Balb/c and C57BL/6 mice were analyzed by flow cytometry after cells were stained with the markers listed in Table 1. […] Shown in FIGS. 7A-7D are results expressed as cell counts for F4/80 CD11b CD86 (mature, active macrophages); CD11c (DCs); CD11c CD86 (activated DCs); CD4 CD69 (activated T cells); CD8 CD69 (activated cytotoxic T cells); NK1.1 CD3^+ CD69 (activated NKT cells); NK1.1 CD3^− CD69 (activated NK cells); CD19 (B cells); and CD19 CD73 CD80 CD273 (memory B cells). […]

[4] = system: 4T1 breast cancer-bearing mice; conditions: 0.1 nmol/g svL4 s.c., 4 h
Method: When tumors reached a volume of at least 500 mm^3, animals were randomized into groups of 3 and dosed with either 0.1 or 1.0 nmol/g of svL4. At 4 h post dose, terminal blood was collected from 3 animals per group and prepared for serum. Sera were also collected from healthy Balb/c mice by the same procedure. Changes in the levels of cytokines/chemokines in sera from breast cancer-bearing and healthy mice were analyzed with the mouse L-308 membrane array by RayBiotech, Inc. (Norcross, Ga.) (Table 2).
Markers of lymphocyte and monocyte activation in response to 0.1 nmol/g svL4 in Balb/c mice bearing breast tumors are compared with healthy mice. Sera from three animals were pooled for analysis with an array of 308 soluble factors.
After the tumors had grown over a period of 10 to 12 days to a size of −500 mm^3, svL4 was injected subcutaneously at doses of 0.1 or 1.0 nmol/g. Sera were prepared 4 h after injection and analyzed with an array of 308 cytokines/chemokines.

[5] = High = control value negligible or low

I: H-NQHTPRGGGSKK-NH2 / II: H-NQHTPRGGGSK / III: H-NQHTPRGGGS / IV: H-NQHTPRGGGS (amide I:11-IV:C, I:12-II:C, II:11-III:C) [sv6D]
Incubation time after which significant release of IFN-γ occurred ([1]; 10 nM sv6D): 3 days | Concentration giving maximal IFN-γ production / optimal cellular response ([1]; 5 days of culture): 10 nM | Ascites formation ([2]; Group 5: sv6D from day 87 after anti-PD-1): essentially complete suppression of ascites formation | Survival ([2]; Group 6: hiatus of one week after a week of sv6D): survived only slightly longer than animals treated with PBS | Survival ([2]; combination of anti-PD-1 with sv6D (Group 4)): maximal survival | Survival ([2]; single agent: anti-PD-1 200 μg i.p. x5 (Group 1), sv6D 0.1 nmol/g s.c. alternate days (Group 7)): maximal survival | Accumulation of ascites ([2]; sv6D alone vs. anti-PD-1): inhibited accumulation of ascites to a greater extent than anti-PD-1 | Median survival ([3]; paclitaxel days 45-49 followed by sv6D from day 100): 169 days | Overall survival time ([3]; paclitaxel followed by sv6D): doubled | Median survival ([3]; single agent, sv6D 0.1 nmol/g, control median end-stage day 122): approximately 141 days | Weight gain at day 120 ([3]; sv6D alone initiated at day 45): no significant weight gain for half the animals | Further increase in body weight over 3 weeks ([3]; sv6D alternate days from day 100, 50 days after paclitaxel): completely suppressed further increases in weight | Body weight (ascites accumulation) after two weeks of treatment ([3]; treatment from day 45, sv6D 0.1 nmol/g s.c. alternate days, paclitaxel 18 μg/g i.p. x3): had not significantly increased

I: H-VQATQSNQHTPRGGGSKK-NH2 / II: H-VQATQSNQHTPRGGGSK / III: H-VQATQSNQHTPRGGGS / IV: H-VQATQSNQHTPRGGGS (amide I:17-IV:C, I:18-II:C, II:17-III:C) [svL4]
Change in peritoneal macrophages, DCs, T cells and NK cells (peritoneal immune cells): Several-fold increases | Ratio of level of IFN-γ in sera (treated vs. untreated) [4, 5]: High | Ratio of level of IL-17 in sera (treated vs. untreated) [4, 5]: High | Ratio of level of IL-21 in sera (treated vs. untreated) [4, 5]: High | Ratio of level of IL-23 in sera (treated vs. untreated) [4, 5]: High | Ratio of level of IL-1α in sera (treated vs. untreated) ([4]; pooled sera of 3): 3 | Ratio of level of IL-2 in sera (treated vs. untreated) ([4]; pooled sera of 3): 56 | Ratio of level of IL-12p70 in sera (treated vs. untreated) ([4]; pooled sera of 3): 3 | Ratio of level of IL-27 in sera (treated vs. untreated) ([4]; pooled sera of 3): 4.5 | Ratio of level of IL-28 in sera (treated vs. untreated) ([4]; pooled sera of 3): 4.3 | Ratio of level of IL-31 in sera (treated vs. untreated) ([4]; pooled sera of 3): 3.5 | Ratio of level of Lymphotoxin-α in sera (treated vs. untreated) ([4]; pooled sera of 3): 12.5 | Ratio of level of TNFα in sera (treated vs. untreated) ([4]; pooled sera of 3): 45 | Ratio of level of sHVEM in sera (treated vs. untreated) ([4]; pooled sera of 3): 2
